# Measured values as given in US10098840B2, “Nanoparticulate composition containing antibiotics for intramammary administration in animals” (priority 2010, dated 2018).
# Tests used:
# [1] = In vitro release profile of cloxacillin benzathine by direct dialysis in PBS:PEG and PBS:milk; assay type: physicochemical; conditions: 37° C.; PBS:PEG vs PBS:milk
# Experimental: The evaluation of the release profile in vitro of the cloxacillin benzathine from the nanocarriers of reservoir type was performed according to the direct dialysis technique in two different release environments. Dialysis bags were inserted in containers containing a buffered saline solution and 1% polyethylene glycol 300 (PBS:PEG) or a buffered saline containing 1% of skimmed milk (PBS:milk) under 37° C. with moderate stirring. […] In pre-defined lapses, aliquots were removed and the environment was re-added with the same volume withdrawn. Right after, the samples were prepared and the supernatant dosed.
# [2] = Degradation of the drug by HPLC during the dissolution test at pH 7.4; assay type: physicochemical; conditions: until 540 minutes of test
# Experimental: In this work, the dissolution was conducted in pH 7.4 for it is about the pH of the milk of animals with mastitis (Gruet et al., 2001).
smiles,measurement,setting,value
"Cc1onc(-c2ccccc2Cl)c1C(=O)N[C@@H]1C(=O)N2[C@@H]1SC(C)(C)[C@@H]2C(=O)O [CLOXB, cloxacillin benzathine]","release depending on the environment (1% PEG vs 1% milk), in words",[1],release was bigger in environment containing 1% of PEG
same,degradation of the drug,[2],no degradation
